Measurements reported in patent publication US8551722B2, “Time-course measurement of enzymatic activity corrected for impacts of disturbances relating to the reaction of the enzyme with a substrate” (Synapse B.V., priority 2008, dated 2013).
Blank lines part the entries; values can stand above or below the molecule they belong to. Residues, ends and D or L forms follow the SMILES beside them. *: point of attachment. AMC = Cc1cc(=O)oc2cc(N*)ccc12; Cbz = O=C(OCc1ccccc1)*; Bz = O=C(c1ccccc1)*

Tests used:
Type in all cases: biochemical
thrombin [1] = target: T1, thrombin (Homo sapiens, UniProt P00734); experiment: Diagnostic plot of fluorogenic substrates measured in bulk fluid, to judge use in thrombin generation measurement; design: from tissue; host or cells: blood plasma of healthy human donors; settings: 1 mM substrate, judged from the diagnostic plot
Method: The development of fluorescence intensity from aminomethylcoumarine (AMC) is typically measured in a 96-well plate fluorometer (Ascent reader, Thermolabsystems OY, Helsinki Finland) equipped with a 390/460 filter set (excitation/emission) and a dispenser. Immulon 2HB, round-bottom 96-well plates (Dynex) are used. Minimally four readings are done per minute and experiments are carried out in quadruplicate unless otherwise indicated.
To each well, 80 μl of plasma is added. Wells in which TG is measured receive 20 μl of buffer, containing the trigger but no Ca^2+.
Wells in which constant thrombin-like activity is to be measured receive 20 μl of the α2M-thrombin solution at the required concentration as indicated. For PPP, the trigger is 30 pM of recombinant tissue factor (TF) and 24 μM phosphatidyl-serine/phosphatidyl-choline/phosphatidyl-ethanolamine vesicles in Hepes-buffered saline. For PRP the trigger is 20 μl of 3 pM of rTF without added PL.
The plate is placed in the fluorometer and allowed to warm to 37° C. (minimally 15 min). The dispenser of the fluorometer is flushed with warm 100 mM CaCl2 solution, emptied, and then flushed with a prewarmed (37° C.) solution of the substrate in Hepes buffer with 60 g/L bovine serum albumin (FluCa). At the start of the experiment, the instrument dispenses 20 μl of FluCa to all the wells to be measured, registers this as zero time, shakes them for 10 s and starts reading.
A similar approach as that of example 4 can be applied to fluorogenic substrates. The substrates, previously described in ref [35] were, from left to right are BZ-Phe-Val-Arg-AMC, Z-Gly-Pro-Arg-AMC and Z-Pro-Arg-AMC, all tested at a concentration of 1 mM in the setup described under methods.
The scaling factor necessary to convert the arbitrary dF/dt values into nM thrombin is derived from the measurement of the amidolytic activity on a thrombin substrate of the material remaining after thrombin generation is over, as in example 3.

thrombin [2] = target: T1, thrombin; experiment: Diagnostic plot (dOD/dt against OD) of chromogenic substrates at fixed thrombin activity, to judge use in thrombin generation measurement
Method: A suitable chromogenic substrate, i.e. a substrate from which a chromogenic group is split when acted upon by the enzyme to be measured (thrombin, plasmin etc), is added to the reaction mixture. Unless otherwise indicated, for thrombin generation, this mixture consists of four parts of defibrinated plasma, one part of trigger solution and one part of start solution. The reactions can be carried out in a spectrophotometer cuvette, a 96 well plate to be read in a photometric well-plate reader or in a laboratory automaton as e.g. the Cobas Bio and Cobas Fara centrifugal analysers (F. Hoffmann-La Roche, Basel, Switzerland). In short in any device capable of measuring the optical density at 405 nm at 30 s intervals during 10 to 30 min.
Typically 80 μL of defibrinated plasma with 20 μL of rTF without Ca2+ are incubated at 37° C., during a time sufficient for temperature equilibration. Thrombin generation is started by adding 20 μL of a pre-warmed start solution containing 100 mM CaCl2 and 3 mM substrate. After the start of the reaction the optical density at 405 nm is recorded at intervals of maximally 30 s for the time required (≧15 min). Depending upon the measuring device a multiple of the volumes can be used.
This amount is determined by the maximal enzyme potential (η) that to be expected in the experiments. […] In the experiment to obtain the diagnostic plot the enzyme concentration (E) is constant and known. So the enzyme potential (η) is known and can be rendered In the diagnostic plot (curved thin lines in FIG. 8).
In this table η indicates the enzyme potential that is to be expected in the thrombingeneration experiment and limit indicates the limit of enzyme potential that can be measured with the indicated substrate at the indicated concentration.
In FIG. 8 it is seen that straight lines fit through the data over the whole range of ODs measured for three of the four substrates tested. For one (S2238) the straight line fits only up to mOD˜650.

thrombin [3] = target: T1, thrombin; experiment: Km of chromogenic thrombin substrates, obtained in buffer; settings: obtained in buffer and not in plasma
Description: (NB: The Km values have been obtained in buffer and not in plasma but any value of Km between 0.5 and 2 times the present one would have allowed similar conclusions as to the suitability in thrombingenration experiments)

[4] = S 50 μM, E 250 nM (MSC), 300 nM (SQ68)
[5] = S 100 μM, E 0.4 nM (S2238), 250 nM (MSC), 300 nM (SQ68)
[6] = S 150 μM, E 250 nM (MSC), 300 nM (SQ68)

Molecule: Cc1cc(=O)oc2cc(NC(=O)[C@H](CCCN=C(N)N)NC(=O)[C@@H](NC(=O)[C@H](Cc3ccccc3)NC(=O)c3ccccc3)C(C)C)ccc12 [BZ-Phe-Val-Arg-AMC] (Bz-Phe-Val-Arg-{AMC})
suitability for the measurement of thrombin generation (fluorogenic substrates) (thrombin [1]): can be used for the measurement of thrombin generation

η (enzyme potential to be expected in the thrombin generation experiment) (thrombin [2]; S 50 μM): 1.06 µM·min
limit (limit of enzyme potential that can be measured with the substrate at the indicated concentration) (thrombin [2]; [4]): >15 nM·min
η (enzyme potential to be expected in the thrombin generation experiment) (thrombin [2]; S 100 μM): 1.11 µM·min
limit (limit of enzyme potential that can be measured with the substrate at the indicated concentration) (thrombin [2]; [5]): >15 nM·min
η (enzyme potential to be expected in the thrombin generation experiment) (thrombin [2]; S 150 μM): 1.17 µM·min
limit (limit of enzyme potential that can be measured with the substrate at the indicated concentration) (thrombin [2]; [6]): >15 nM·min
Km (thrombin [3]): 882 µM
Molecule: CC(C)C(NC(=O)OCCS(C)(=O)=O)C(=O)NC(CCCN=C(N)N)C(=O)Nc1ccc([N+](=O)[O-])cc1 (stereo not drawn) [MSC, Msc-Val-Arg-pNA]

OD up to which the straight line fits the diagnostic plot (thrombin [2]; FIG. 8): ~650 mOD
η (enzyme potential to be expected in the thrombin generation experiment) (thrombin [2]; S 100 μM): 11 µM·min
limit (limit of enzyme potential that can be measured with the substrate at the indicated concentration) (thrombin [2]; [5]): 0.014 nM·min
enzyme potential read from the plot at the OD where the straight line stops fitting (thrombin [2]; at mOD ~650): ~12.5 nM·min
ETP to be measured in the presence of this substrate (thrombin [2]; due to tight binding and inhibition of natural antithrombins): 11000 nM·min
Km (thrombin [3]): 10 µM
Molecule: NC(N)=NCCC[C@H](NC(=O)[C@@H]1CCCCN1C(=O)[C@H](N)Cc1ccccc1)C(=O)Nc1ccc([N+](=O)[O-])cc1 [S2238, HD-Phe-Pip-Arg-pNA]
suitability for the measurement of thrombin generation (chromogenic substrates) (thrombin [2]; judged from the diagnostic plot): unsuitable for the measurement of thrombin generation

Molecule: COC(=O)CC(=O)NC(C)(C)C(=O)NC(CCCNC(=N)N)C(=O)Nc1ccc([N+](=O)[O-])cc1.Cl (stereo not drawn) [SQ68, Malonyl-α-aminoisobutyryl-arginine para-nitroanilide methyl ester-HCl]
η (enzyme potential to be expected in the thrombin generation experiment) (thrombin [2]; S 50 μM): 1.06 µM·min
limit (limit of enzyme potential that can be measured with the substrate at the indicated concentration) (thrombin [2]; [4]): >30 nM·min
η (enzyme potential to be expected in the thrombin generation experiment) (thrombin [2]; S 100 μM): 1.12 µM·min
limit (limit of enzyme potential that can be measured with the substrate at the indicated concentration) (thrombin [2]; [5]): >30 nM·min
η (enzyme potential to be expected in the thrombin generation experiment) (thrombin [2]; S 150 μM): 1.18 µM·min
limit (limit of enzyme potential that can be measured with the substrate at the indicated concentration) (thrombin [2]; [6]): >30 nM·min
Km (thrombin [3]): 830 µM

Molecule: Cc1cc(=O)oc2cc(NC(=O)[C@H](CCCN=C(N)N)NC(=O)[C@@H]3CCCN3C(=O)CNC(=O)OCc3ccccc3)ccc12 [Z-Gly-Pro-Arg-AMC] (Cbz-Gly-Pro-Arg-{AMC})
suitability for the measurement of thrombin generation (fluorogenic substrates) (thrombin [1]): turnover number that is so high as to have the substrate consumed before thrombin generation is over

Molecule: Cc1cc(=O)oc2cc(NC(=O)C(CCCN=C(N)N)NC(=O)C3CCCN3C(=O)OCc3ccccc3)ccc12 (stereo not drawn) [Z-Pro-Arg-AMC] (Cbz-Pro-Arg-{AMC}; configuration not given here)
suitability for the measurement of thrombin generation (fluorogenic substrates) (thrombin [1]): can be used for the measurement of thrombin generation

η (enzyme potential to be expected in the thrombin generation experiment) (thrombin [2]; S 500 μM): 1.58 µM·min
limit (limit of enzyme potential that can be measured with the substrate at the indicated concentration) (thrombin [2]; S 500 μM, E 50 nM): >2 nM·min
Km (thrombin [3]): 866 µM
Molecule: DEMZ-Gly-Arg-pNA
